Test: Pharmacokinetics of dexlansoprazole injection after single intravenous infusion in healthy Chinese subjects
Assay type: in vivo, human
Details: for Vd / clearance / half-life: iv
Procedure: Dexlansoprazole injection (30 mg per vial) used in the PK and PD study was manufactured by Nanjing Yoko Pharma Co., Ltd. (Nanjing, China). Subjects received an intravenous infusion of 20 or 30 mg dexlansoprazole injection in sterile saline solution (100 mL/h, 60 min). The study drug was administrated with an infusing pump (SA213, Lifepum, Beijing, China) and given through an intravenous catheter in the antecubital vein opposite to the one from which blood samples were taken.
To determine the pharmacokinetic properties of dexlansoprazole injection in human, a series of venous blood samples (5 mL) were collected in heparinized tubes at 0 (pre-dose), 10, 20, 40, 60, and 75 min, 1.5, 2, 2.5, 3, 4, 6, 9, 12, 16, 24, and 36 h post-dose. Samples were centrifuged immediately at 4°C for 10 min at 3,500 revolutions per minute, then separated and stored at −80°C for PK analysis.
A chiral liquid chromatography-mass spectrometry method was developed and validated for the simultaneous determination of (R)- and (S)-lansoprazole in human plasma, with the calibration curve of 500–3,000 ng/mL for both (R)- and (S)-lansoprazole (Sun et al., [2015]). […] The mass spectrometric analysis was performed using a QTrap 5500 mass spectrometer (AB Sciex, Concord, Ontario, Canada).
The PK parameter of Cmax (maximum concentration) and Tmax (the time to Cmax) were obtained directly from the observed data. Other PK parameters including t1/2 (elimination half-life), AUC^PK (area under the plasma concentration-time curve), Vd (volume of distribution), and CL (clearance) were calculated using non-compartmental methods with Phoenix WinNonlin version 6.4 (Pharsight Inc., CA, USA).

[1] = human, plasma, 20 mg, 20 mg iv, CYP2C19 PM (n = 6)
[2] = human, plasma, 20 mg, 20 mg iv, CYP2C19 hetEM (n = 9)
[3] = human, plasma, 20 mg, 20 mg iv, CYP2C19 homEM (n = 8)
[4] = human, plasma, 20 mg, 20 mg iv, Total (n = 23)
[5] = human, plasma, 30 mg, 30 mg iv, CYP2C19 PM (n = 7)
[6] = human, plasma, 30 mg, 30 mg iv, CYP2C19 hetEM (n = 10)
[7] = human, plasma, 30 mg, 30 mg iv, CYP2C19 homEM (n = 11)
[8] = human, plasma, 30 mg, 30 mg iv, Total (n = 28)
[9] = human, plasma, 20 mg iv, CYP2C19 PM (n = 6)

SMILES: Cc1c(OCC(F)(F)F)ccnc1C[S@@+]([O-])c1nc2ccccc2[nH]1 [dexlansoprazole]
- dose proportionality of Cmax and AUC^PK (20 vs 30 mg iv): exhibit dose proportionality
- differences in PK parameters among ABCB1 genotypes (ABCB1 C3435T CC, CT, TT): no statistical significant differences
- Vd [1]: 11 L
- clearance [1]: 34.7 mL/min
- half-life [1]: 3.65 h
- Vd [2]: 8.78 ± 1.35 L
- clearance [2]: 76.7 mL/min
- half-life [2]: 1.37 ± 0.24 h
- Vd [3]: 10.4 ± 1.07 L
- clearance [3]: 113 mL/min
- half-life [3]: 1.18 ± 0.4 h
- Vd [4]: 9.62 ± 1.45 L
- clearance [4]: 90.2 mL/min
- half-life [4]: 1.41 ± 0.64 h
- Vd [5]: 9.58 ± 1.56 L
- clearance [5]: 40.2 mL/min
- half-life [5]: 3.96 ± 1.54 h
- Vd [6]: 8.2 ± 1.73 L
- clearance [6]: 61.5 mL/min
- half-life [6]: 1.56 ± 0.15 h
- Vd [7]: 10.7 ± 1.23 L
- clearance [7]: 115 mL/min
- half-life [7]: 1.14 ± 0.28 h
- Vd [8]: 9.78 ± 1.69 L
- clearance [8]: 78.2 mL/min
- half-life [8]: 2.17 ± 1.57 h
- AUC(0-inf) [9]: 9600 ng·h/mL
- Cmax [9]: 1670 ng/mL
- AUC (human, plasma, 20 mg iv, CYP2C19 PM (n = 6), read-out: AUC0-tCon-t): 9490 ng·h/mL
- Tmax (human, plasma, 20 mg iv, CYP2C19 homEM (n = 8)): 1 h
- Tmax (human, plasma, 30 mg iv, Total (n = 28)): 1 h
- AUC^PK for CYP2C19 PMs relative to CYP2C19 homEMs (same dose group): 3- to 4 fold
- t1/2 for CYP2C19 PMs relative to CYP2C19 homEMs (same dose group): 3- to 4 fold

From paper PMC5614982, “Impact of Gastric H^+/K^+-ATPase rs2733743 on the Intragastric pH-Values of Dexlansoprazole Injection in Chinese Subjects” (Frontiers in Pharmacology, 2017)
